The text below walks through data of patent EP4745138A1, “THIO-GLUTARIMIDO ISOINDOLINONE DERIVATIVE, BIFUNCTIONAL PROTEIN DEGRADER CONTAINING SAME, AND USES THEREOF” (Gluetacs Therapeutics (Shanghai) Co., Ltd., priority 2023, dated 2025).

Each structure is given as a SMILES string.

In one experiment the test system is Tau. Nature of the experiment: Western blot, target protein degradation in H4 Cell. The following applies: substrate protein remaining %, treated at 500 nM and 50 nM, 24 hours. The experiment is classed as cell-based. On the procedure: (§1) Conventional Western blot assay was performed to evaluate the effects of the compounds of the present disclosure on the expression of target proteins in cells.
(§2) (1) Cell Seeding and Protein Harvesting: The selected cells were processed according to the cell seeding procedure and protein harvesting procedure in Table II-2. Table II-2 Cell Seeding and Protein Harvesting Procedures
(§3) (2) To the collected supernatant, 5X SDS sample loading buffer was added, followed by denaturation at 95°C for 5 minutes. The denatured samples were then separated by SDS-PAGE electrophoresis on a polyacrylamide gel. Proteins were transferred to a nitrocellulose membrane (0.45 µm NC membrane), blocked with blocking buffer at room temperature for 1 hour, and subjected to antibody incubation and development procedures according to the antibody manufacturer's instructions (Cell Signaling Technology).
(§4) Half-Maximal Degradation Concentration value (the drug concentration required for degrading proteins by 50%, abbreviated as DC50) reads method: comparing the grayscale values of Western blot bands from drug-treated samples with those from blank DMSO-treated controls, and identifying the drug concentration range at which the grayscale value is half that of the DMSO-treated control bands.
(§5) DC50 values can be calculated using ImageJ software to measure grayscale values of Western blot bands from drug-treated samples. The concentration-response curve is fitted to estimate the drug concentration corresponding to half the grayscale value.
(§6) Target protein remaining (%) refers to the percentage of target protein remaining in cells after treatment with protein degrader compounds.
(§7) Calculation method for target protein remaining (%): Use ImageJ software to measure grayscale values of Western blot bands from drug (protein degrader)-treated samples. The grayscale value of drug-treated bands is divided by that of internal control protein bands, and the resulting quotient is normalized to obtain the relative percentage of remaining target protein after protein degrader treatment. […]
A general note: In western blotting, separated proteins are transferred to a membrane and probed.

In experiment [1] the target is T1, human Cereblon WT GST-tagged protein (Homo sapiens, UniProt Q96SW2).
T1 construct: purchased CISBIO 64BDCRBNPEH
Briefly: CRBN-binding affinity, HTRF (CEREBLON BINDING kit). The following applies: for inhibition at 0.5 µM: read-out: Inhibition Rate at 0.5 µM (%); for inhibition at 2 µM: read-out: Inhibition Rate at 2 µM (%). The procedure, abridged: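 Compounds are serially diluted in diluent #9 (1X) and added at final 2 µM and 0.5 µM. GST-tagged wild-type Cereblon is added next, followed by premixed thalidomide-red reagent and anti-GST Eu antibody, and HTRF signal is measured.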
On the technique in general: In TR-FRET formats the signal depends on donor and acceptor labels being close together.

The next experiment concerns MM.1S. Briefly: Tumor cell proliferation inhibition (CellTiter-Meiluncell Luminescent Cell Viability Assay). It counts as cell-based. To be noted: Homo sapiens, MM1.S, MM.1S, 96 hours, Table I-14, AKT inhibitors. The procedure, abridged:
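Following overnight seeding, tumor cells received serial compound dilutions to final levels that included 10 nM and 500 nM. Viability was assessed by luminescence at the end of the specified exposure time. Cultures were kept at 37°C with 5% CO2.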

In the next experiment the test system is AKT. Briefly: Western blot, target protein degradation in hPBMC Cell. To be noted: substrate protein remaining %, treated at 50 nM and 500 nM, 24 hours. The experiment is classed as cell-based, Human. The procedure:
as §1, §2, §3, §4, §5, §6, §7

T1 sequence (Q96SW2 whole entry): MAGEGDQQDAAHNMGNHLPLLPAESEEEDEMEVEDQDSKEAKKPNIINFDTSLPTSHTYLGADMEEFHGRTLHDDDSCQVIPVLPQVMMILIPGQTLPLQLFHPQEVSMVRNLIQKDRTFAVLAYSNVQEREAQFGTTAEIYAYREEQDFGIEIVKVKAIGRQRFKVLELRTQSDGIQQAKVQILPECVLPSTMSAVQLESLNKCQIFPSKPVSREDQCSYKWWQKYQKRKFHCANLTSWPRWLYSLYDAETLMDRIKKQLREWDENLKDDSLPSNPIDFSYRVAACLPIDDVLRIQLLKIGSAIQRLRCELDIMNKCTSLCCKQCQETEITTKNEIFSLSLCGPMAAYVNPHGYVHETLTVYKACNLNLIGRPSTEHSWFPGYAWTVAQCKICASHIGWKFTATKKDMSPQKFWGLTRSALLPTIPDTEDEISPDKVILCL

As for `CC(=O)N1CCCN(c2nc(NCCc3cccs3)nc(N3CCN(Cc4ccc5c(c4)CN(C4CCC(=O)NC4=O)C5=S)CC3)n2)CC1` (centres unmarked) [GT-08867, 3-(5-((4-(4-(4-acetyl-1,4-diazepan-1-yl)-6-((2-(thiophen-2-yl)ethyl)amino)-1,3,5-triazin-2-yl)piperazin-1-yl)methyl)-1-thioxoisoindolin-2-yl)piperidine-2,6-dione], in the experiment with Tau, the “Degradation of substrate protein Tau” value is “A (0% ≤ substrate protein remaining % ≤ 80%)”. In experiment [1], the inhibition (in general, the percentage by which the read-out fell short of the control) at 0.5 µM lay within 53 to 60% and the inhibition at 2 µM lay in the range of 80 to 100%.

`Cn1ncc(Cl)c1-c1cc(C(=O)N[C@H](CNCc2ccc3c(c2)CN(C2CCC(=O)NC2=O)C3=S)Cc2ccc(F)c(F)c2)oc1Cl` (stereo partly drawn) [GT-08895, 5-chloro-4-(4-chloro-1-methyl-1H-pyrazol-5-yl)-N-((2S)-1-(3,4-difluorophenyl)-3-(((2-(2,6-dioxopiperidin-3-yl)-1-thioxoisoindolin-5-yl)methyl)amino)propan-2-yl)furan-2-carboxamide]: the inhibition at 0.01 µM in the experiment with MM.1S (10 nM, read-out: Inhibition Rate at 10 nM (%)) was 30 to 40%. In addition, the inhibition at 0.5 µM in the experiment on MM.1S (500 nM, read-out: Inhibition Rate at 500 nM (%)) was in the range of 50 to 60%; in experiment [1] it was 30 to 40%. For the same compound, the “Degradation of substrate protein AKT” value in the experiment with AKT is recorded as “A (0% ≤ substrate protein remaining % ≤ 80%)”. The inhibition at 2 µM in experiment [1] lay within 60 to 80%.

As for `Cn1ncc(Cl)c1-c1cc(C(=O)N[C@@H](Cc2ccc(F)c(F)c2)CN2CCN(Cc3ccc4c(c3)CN(C3CCC(=O)NC3=O)C4=S)CC2)oc1Cl` (stereo partly drawn) [GT-08896, 5-chloro-4-(4-chloro-1-methyl-1H-pyrazol-5-yl)-N-((2S)-1-(3,4-difluorophenyl)-3-(4-((2-(2,6-dioxopiperidin-3-yl)-1-thioxoisoindolin-5-yl)methyl)piperazin-1-yl)propan-2-yl)furan-2-carboxamide], the “Degradation of substrate protein AKT” value in the experiment on AKT is “A (0% ≤ substrate protein remaining % ≤ 80%)”. Further, in experiment [1], the inhibition at 0.5 µM fell in the range of 53 to 60% and the inhibition at 2 µM was 80 to 100%.

With `Cn1ncc(Cl)c1-c1cc(C(=O)N[C@@H](Cc2cccc(F)c2)CN2CCN(Cc3ccc4c(c3)CN(C3CCC(=O)NC3=O)C4=S)CC2)sc1Cl` (stereo partly drawn) [GT-08897, 5-chloro-4-(4-chloro-1-methyl-1H-pyrazol-5-yl)-N-((2S)-1-(4-((2-(2,6-dioxopiperidin-3-yl)-1-thioxoisoindolin-5-yl)methyl)piperazin-1-yl)-3-(3-fluorophenyl)propan-2-yl)thiophene-2-carboxamide], in the experiment with AKT, the “Degradation of substrate protein AKT” value was “A (0% ≤ substrate protein remaining % ≤ 80%)”. In experiment [1], the inhibition at 0.5 µM lay within 60 to 80% and the inhibition at 2 µM is 60 to 80%.

In the case of `O=C1CCC(N2Cc3cc(CN4CCN(c5ccc(-c6ccc7c8cnccc8n(C(F)F)c7c6)cn5)CC4)ccc3C2=S)C(=O)N1` (centres unmarked) [GT-08979, 3-(5-((4-(5-(5-(difluoromethyl)-5H-pyrido[4,3-b]indol-7-yl)pyridin-2-yl)piperazin-1-yl)methyl)-1-thioxoisoindolin-2-yl)piperidine-2,6-dione], in the experiment with Tau, the “Degradation of substrate protein Tau” value is on record as “A (0% ≤ substrate protein remaining % ≤ 80%)”. In experiment [1], the inhibition at 0.5 µM is 53 to 60% and the inhibition at 2 µM was 60 to 80%.

With `O=C1CCC(N2Cc3cc(CN4CCN(c5ccn6c(n5)nc5ccccc56)CC4)ccc3C2=S)C(=O)N1` (centres unmarked) [GT-08981, 3-(5-((4-(benzo[4,5]imidazo[1,2-a]pyrimidin-2-yl)piperazin-1-yl)methyl)-1-thioxoisoindolin-2-yl)piperidine-2,6-dione], in the experiment with Tau, the “Degradation of substrate protein Tau” value is listed as “A (0% ≤ substrate protein remaining % ≤ 80%)”. For the same compound, in experiment [1], the inhibition at 0.5 µM fell in the range of 60 to 80% and the inhibition at 2 µM was 80 to 100%.
